The source of these data is paper PMC7351026, “Serum Half-Lives for Short- and Long-Chain Perfluoroalkyl Acids after Ceasing Exposure from Drinking Water Contaminated by Firefighting Foam” (Environmental Health Perspectives, 2020).

What all share (format): in vivo, human
Data set [1] in a line: Urine/serum ratio in paired samples. The note with it: mean of four paired samplings per subject, 17 airport employees. As for the experimental part:
(§1) Urinary PFAS concentrations were specific-gravity adjusted. The ratio of urine and serum concentration for each PFAS (urine/serum ratio) at each sampling was calculated based on PFAS concentrations in paired serum and urine samples from 17 employees. Then the personal average urine/serum ratio was calculated using the mean value of repeated samplings for each employee.

Data set [2] in a line: PFAS levels in urine samples of airport employees, specific-gravity adjusted (LC/MS/MS). The protocol: Only one employee provided a single urine sample. […] All employees provided written informed consent.
The samples were thawed 1–2 h, then mixed by vortex shaker and manual turning. […] For the urine samples, 50μL urine was mixed with 25μL of methanol and 25μL of a 50% acetonitrile solution containing isotopically labeled internal standards (see Table S1). Then samples were shaken vigorously for 30 min and centrifuged at 3,000×g for 10 min at room temperature.
Aliquots of 20μL of the sample were analyzed using LC/MS/MS. […] The analysis was performed in negative ion mode. The ion source temperature was at 350°C.
as §1

Data set [3] can be described thus: Serum/water ratio. The note with it: median serum level of first samples (26 employees) divided by airport drinking-water level. As for the experimental part:
The ratio of serum and water concentration for each PFAS (serum/water ratio) was calculated based on median serum level in the first serum sample obtained from all 26 airport employees divided by the drinking-water concentration. This ratio is an indicator of PFAS accumulation in body.

Data set [4] in a line: Background serum PFAS levels in reference population from Karlshamn. Conditions: reference group from Karlshamn without PFAS contamination in drinking water, N=58, sampled 2016. From the text:
For comparison with Swedish general background PFAS serum levels, we referred to the PFAS levels observed in a reference population from Karlshamn, a municipality in southern Sweden without PFAS contamination in the municipal drinking water. In 2016, 226 individuals were sampled. Fifty-nine individuals were randomly selected for analyzing other short-chain PFAS than the legacy ones, using the same modified method as for the airport employees. Fifty-eight individuals within the same age range as the airport employees (i.e., >22 years of age ) were included in the comparison. For a detailed description of this population see Li et al. ([2018]).

Where [5] appears, read: 2nd sampling (October 2018), count 17.
Where [6] appears, read: 3rd sampling (November, 2018), count 16.
Where [7] appears, read: 4th sampling (December 2018), count 14.
[8] abbreviates: 5th sampling (January 2019), count 12.

Take `O=S(=O)(O)C(F)(F)C(F)(F)C(F)(F)C(F)(F)C(F)(F)C(F)(F)C(F)(F)C(F)(F)F` [L-PFOS, linear perfluorooctane sulfonic acid]: in data set [1], the “Personal average urine/serum ratio, median (range)” value was 0.00092 (0.000035–0.0056). In data set [2] (setting [5]), the “Specific gravity adjusted urinary level, 25 percentile” value was “< LOD”; the “Specific gravity adjusted urinary level, 75 percentile” value came out at 0.01 ng/mL; the “Specific gravity adjusted urinary level, Max” value was 0.08 ng/mL; the “Specific gravity adjusted urinary level, Median” value is “< LOD”. Besides, in data set [2] (setting [5]), the “Specific gravity adjusted urinary level, Min” value was “< LOD”. Besides, in data set [2] (setting [6]), the “Specific gravity adjusted urinary level, 25 percentile” value was “< LOD”; the “Specific gravity adjusted urinary level, 75 percentile” value was 0.02 ng/mL; the “Specific gravity adjusted urinary level, Max” value turned out to be 0.03 ng/mL; the “Specific gravity adjusted urinary level, Median” value turned out to be 0.01 ng/mL. For the same molecule, in data set [2] (setting [6]), the “Specific gravity adjusted urinary level, Min” value was “< LOD”. Moreover, in data set [2] (setting [7]), the “Specific gravity adjusted urinary level, 25 percentile” value was “< LOD”; the “Specific gravity adjusted urinary level, 75 percentile” value stood at 0.02 ng/mL; the “Specific gravity adjusted urinary level, Max” value is listed as 0.05 ng/mL; the “Specific gravity adjusted urinary level, Median” value is reported as “< LOD”. The “Specific gravity adjusted urinary level, Min” value in data set [2] (setting [7]) is “< LOD”. In addition, in data set [2] (setting [8]), the “Specific gravity adjusted urinary level, 25 percentile” value was “< LOD”; the “Specific gravity adjusted urinary level, 75 percentile” value came to 0.01 ng/mL; the “Specific gravity adjusted urinary level, Max” value was 0.04 ng/mL; the “Specific gravity adjusted urinary level, Median” value is listed as “< LOD”. In data set [2] (setting [8]), the “Specific gravity adjusted urinary level, Min” value was “< LOD”. In data set [3], the Serum/water ratio amounted to 153. Besides, the “PFAS serum level, median (range)” value in data set [4] is 3.0 (0.30–9.8) ng/mL.
`O=S(=O)(O)C(F)(F)C(F)(F)C(F)(F)C(F)(F)C(F)(F)C(F)(F)F` [PFHxS, perfluorohexane sulfonic acid]: the “Personal average urine/serum ratio, median (range)” value in data set [1] is on record as 0.00093 (0.0006–0.0018). In data set [2] (setting [5]), the “Specific gravity adjusted urinary level, 25 percentile” value was found to be 0.06 ng/mL; the “Specific gravity adjusted urinary level, 75 percentile” value came out at 0.13 ng/mL; the “Specific gravity adjusted urinary level, Max” value is recorded as 0.28 ng/mL; the “Specific gravity adjusted urinary level, Median” value is recorded as 0.09 ng/mL. In data set [2] (setting [5]), the “Specific gravity adjusted urinary level, Min” value turned out to be 0.03 ng/mL. In data set [2] (setting [6]), the “Specific gravity adjusted urinary level, 25 percentile” value amounted to 0.05 ng/mL; the “Specific gravity adjusted urinary level, 75 percentile” value turned out to be 0.13 ng/mL; the “Specific gravity adjusted urinary level, Max” value came out at 0.26 ng/mL; the “Specific gravity adjusted urinary level, Median” value was 0.07 ng/mL. Besides, the “Specific gravity adjusted urinary level, Min” value in data set [2] (setting [6]) was determined as 0.03 ng/mL. For the same molecule, in data set [2] (setting [7]), the “Specific gravity adjusted urinary level, 25 percentile” value is 0.05 ng/mL; the “Specific gravity adjusted urinary level, 75 percentile” value is reported as 0.17 ng/mL; the “Specific gravity adjusted urinary level, Max” value is on record as 0.73 ng/mL; the “Specific gravity adjusted urinary level, Median” value came to 0.12 ng/mL. Besides, the “Specific gravity adjusted urinary level, Min” value in data set [2] (setting [7]) was 0.04 ng/mL. Moreover, in data set [2] (setting [8]), the “Specific gravity adjusted urinary level, 25 percentile” value came out at 0.07 ng/mL; the “Specific gravity adjusted urinary level, 75 percentile” value turned out to be 0.11 ng/mL; the “Specific gravity adjusted urinary level, Max” value is 0.31 ng/mL; the “Specific gravity adjusted urinary level, Median” value is on record as 0.08 ng/mL. Further, in data set [2] (setting [8]), the “Specific gravity adjusted urinary level, Min” value was 0.06 ng/mL. For the same molecule, the “Specific gravity adjusted urine level, median (range)” value in data set [2] (second to fifth samplings, 17 airport employees) is 0.092 (0.025–0.73) ng/mL. Further, the Serum/water ratio in data set [3] was found to be 107. Moreover, the “PFAS serum level, median (range)” value in data set [4] is 0.59 ( <LOD –1.2) ng/mL.
